The values that follow come from patent US20260152503A1, “SPIROBICYCLIC COMPOUNDS” (ACERAND THERAPEUTICS (HONG KONG) LIMITED, priority 2022, published 2026).

pIC50: −log10 of the molar value.

Holding throughout (type): cell-based
Experiment [1] concerns the target T1, FGFR1 (Homo sapiens, UniProt P11362).
T1 construct: DMS114 (FGFR1 amplification); host or cells: DMS114
The experiment can be described thus: pERK potency assay (In Cell ELISA), DMS114 cells. Conditions: DMS114 (FGFR1 amplification) cells, 3 hours. From the text: (§1) The purpose of this assay is to measure the ability of test compounds to inhibit FGFR mediated downstream signaling cascades, i.e., ERK phosphorylation in cells with FGFR aberrations. FGFR aberrations become constitutively active and thus induces cascades of cellular signaling events that result in increased phosphorylation of ERK at Threonine 202 and Tyrosine 204 (pERK). The procedure called In Cell ELISA described below measures the level of cellular pERK in response to FGFR specific inhibitor compounds in FGFR aberrations of AN3CA (FGFR2/k310R, N549K), DMS114 (FGFR1 amplification), RT112 (FGFR3 overexpression/FGFR3-TACC3 fusion) and Hep3B (FGF19 amplification) cells. AN3CA, DMS114 and Hep3B cells are from ATCC. RT112 cells are from Sigma. DMS114 cells are grown and maintained using RPMI-1640 medium supplemented with 10% heat-inactivated fetal bovine serum. AN3CA, Hep3B and RT112 cells are grown and maintained using DMEM supplemented with 10% heat-inactivated fetal bovine serum. On the day before test compound addition, cells are plated in poly-D-lysine coated 96-well cell culture plates (Corning® BioCoat® Cat #356640) at 40000 cells/well/100 μL and grown overnight in a 37° C., 5% CO2 incubator. Test compounds are prepared with 4-fold serial dilutions in DMSO, with a top concentration of 10 μM. On the day of the assay, 50 μL of test compound diluted in media was added to each well of cell culture plate with the final concentration of compounds spanning from 0.000038 μM to 10 μM. After compound addition, cells are incubated for 3 hours at 37° C., 5% CO2 and then the culture medium is removed. Cells are fixed with 4% formaldehyde in phosphate-buffered saline (PBS) and incubated at RT for 20 min. The plate is then washed three times with PBST (PBS with 0.05% tween-20), followed by the incubation with 100 μL of pre-cooled methanol at −20° C. for 20 min. After incubation, methanol is removed, and the plate is washed once with PBST. Cells are permeabilized with 100 µL/well of 0.1% Triton X-100 in PBS at RT for 20 min and then quenched with quenching buffer (PBST containing 1% H2O2 and 0.1% sodium azide) for 20 min at RT with gentle shaking. After washing once with PBST, blocking buffer (250 ul/well, Pierce™ Protein-Free-PBS Blocking Buffer, Cat #37572) was then added to the cells for 1-h incubation at RT, followed by anti-pERK antibody (cell signaling, 1:1000 dilution in 5% BSA in PBST) incubation overnight at 4° C. and secondary antibody-HRP (Jackson immunoresearch, 1:3000 dilution in 5% BSA in PBST) incubation at RT for 1 h. PBST wash is carried out after each step three times. Before the addition of the substrate (Advansta ELISABright), the plate is washed with PBS twice to remove detergent residues. Cellular pERK level is determined using the microplate reader (Biotek Synergy H1) to detect the chemiluminescence signal. IC50 is determined by fitting a 4-parameter sigmoidal concentration-response model. FGFR wild type cells (H1975, PC-9 and AGS) are used to serve as negative control (FGFR selectivity) with the same assay procedures described above.

Experiment [2] deals with T2, FGFR3 (Homo sapiens, UniProt P22607).
T2 construct: RT112 (FGFR3 overexpression/FGFR3-TACC3 fusion); host or cells: RT112; the other entry of the earlier key: TACC3 (Q9Y6A5, Transforming acidic coiled-coil-containing protein 3)
Nature of the experiment: pERK potency assay (In Cell ELISA), RT112 cells. Conditions: RT112 (FGFR3 overexpression/FGFR3-TACC3 fusion) cells, 3 hours.
Description: as §1

Experiment [3] addresses T3, FGFR2 (Homo sapiens, UniProt P21802, K310R/N549K).
T3 construct: in FGFR aberrations of AN3CA (FGFR2/k310R, N549K); host or cells: AN3CA
The experiment can be described thus: pERK potency assay (In Cell ELISA), AN3CA cells. Conditions: for pIC50: pERK, AN3CA (FGFR2/k310R, N549K) cells, 3 hours; for FGFR1 IC50/FGFR2 IC50 / FGFR3 IC50/FGFR2 IC50: selectivity ratio, pERK potency; for FGFR1 IC50/FGFR2 IC50: FGFR2 relative to FGFR1; for FGFR3 IC50/FGFR2 IC50: FGFR2 relative to FGFR3.
Description: as §1

T1 sequence (P11362 22-822): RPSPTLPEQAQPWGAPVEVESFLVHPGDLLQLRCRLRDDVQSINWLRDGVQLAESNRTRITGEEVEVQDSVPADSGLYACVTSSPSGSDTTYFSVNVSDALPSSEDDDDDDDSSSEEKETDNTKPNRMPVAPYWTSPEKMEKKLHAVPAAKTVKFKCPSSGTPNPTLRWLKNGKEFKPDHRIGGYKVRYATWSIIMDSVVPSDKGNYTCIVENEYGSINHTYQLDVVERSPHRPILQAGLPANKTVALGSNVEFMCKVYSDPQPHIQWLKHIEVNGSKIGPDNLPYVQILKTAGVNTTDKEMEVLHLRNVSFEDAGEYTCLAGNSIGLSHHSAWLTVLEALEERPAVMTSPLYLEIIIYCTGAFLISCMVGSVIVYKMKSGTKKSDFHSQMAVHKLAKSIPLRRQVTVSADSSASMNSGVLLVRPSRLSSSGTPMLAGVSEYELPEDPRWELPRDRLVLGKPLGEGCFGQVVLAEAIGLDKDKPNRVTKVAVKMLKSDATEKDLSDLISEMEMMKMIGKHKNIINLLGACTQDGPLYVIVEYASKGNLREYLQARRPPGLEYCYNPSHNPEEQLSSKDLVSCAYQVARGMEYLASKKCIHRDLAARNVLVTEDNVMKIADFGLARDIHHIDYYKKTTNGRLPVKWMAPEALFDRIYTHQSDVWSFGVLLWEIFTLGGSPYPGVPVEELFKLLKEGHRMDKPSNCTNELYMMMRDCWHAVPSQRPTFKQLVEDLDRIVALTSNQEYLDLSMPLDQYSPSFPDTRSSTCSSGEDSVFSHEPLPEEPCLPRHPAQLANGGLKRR
T3 sequence (P21802 22-821 K310R/N549K): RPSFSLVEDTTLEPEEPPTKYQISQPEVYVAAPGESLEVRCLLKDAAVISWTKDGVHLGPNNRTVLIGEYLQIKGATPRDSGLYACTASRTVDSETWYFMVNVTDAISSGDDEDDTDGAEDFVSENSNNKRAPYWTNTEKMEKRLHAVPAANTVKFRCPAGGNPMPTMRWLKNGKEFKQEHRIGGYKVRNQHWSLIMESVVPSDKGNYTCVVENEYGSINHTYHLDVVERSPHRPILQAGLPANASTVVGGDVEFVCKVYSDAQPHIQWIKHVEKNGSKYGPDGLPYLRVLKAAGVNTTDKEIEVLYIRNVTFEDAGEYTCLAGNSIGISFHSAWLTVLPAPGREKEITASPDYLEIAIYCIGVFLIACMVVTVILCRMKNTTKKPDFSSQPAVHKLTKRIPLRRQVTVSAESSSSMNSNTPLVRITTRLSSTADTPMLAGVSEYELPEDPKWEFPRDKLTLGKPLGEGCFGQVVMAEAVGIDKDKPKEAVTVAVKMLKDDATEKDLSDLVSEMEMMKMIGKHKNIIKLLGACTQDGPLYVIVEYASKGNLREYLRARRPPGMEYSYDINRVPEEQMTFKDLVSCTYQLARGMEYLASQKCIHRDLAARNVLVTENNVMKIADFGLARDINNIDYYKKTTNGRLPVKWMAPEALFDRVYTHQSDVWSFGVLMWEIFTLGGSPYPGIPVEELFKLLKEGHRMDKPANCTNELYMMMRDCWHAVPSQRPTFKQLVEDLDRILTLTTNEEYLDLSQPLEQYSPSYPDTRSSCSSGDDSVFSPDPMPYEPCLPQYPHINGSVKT

As to `C=CC(=O)N1CCC2(CC=C(c3c(-c4ccnnc4)c4c(N)ncnc4n3C)CC2)CC1` [Example 31, 1-(9-(4-amino-7-methyl-5-(pyridazin-4-yl)-7H-pyrrolo[2,3-d]pyrimidin-6-yl)-3-azaspiro[5.5]undec-8-en-3-yl)prop-2-en-1-one], the pIC50 in experiment [1], in experiment [2] and in experiment [3] was < 7.00 in each case.
In the case of `C=CC(=O)N1CCC2(CCC(c3c(-c4ccc(Oc5ncccn5)cc4)c4c(N)ncnc4n3C)CC2)CC1` [Example 6, 1-(9-(4-amino-7-methyl-5-(4-(pyrimidin-2-yloxy)phenyl)-7H-pyrrolo[2,3-d]pyrimidin-6-yl)-3-azaspiro[5.5]undecan-3-yl)prop-2-en-1-one], the pIC50 in experiment [1], in experiment [2] and in experiment [3] was < 7.00 each time.
As to `C=CC(=O)N1CCC2(CC=C(c3c(-c4ncccc4F)c4c(N)ncnc4n3C)CC2)CC1` [Example 49, 1-(9-(4-amino-5-(3-fluoropyridin-2-yl)-7-methyl-7H-pyrrolo[2,3-d]pyrimidin-6-yl)-3-azaspiro[5.5]undec-8-en-3-yl)prop-2-en-1-one], the negative-log IC50 (pIC50) in experiment [1] was < 7.00. The negative-log IC50 (pIC50) in experiment [2] was < 7.00. Besides, in experiment [3], the pIC50 is 7.00 to 7.52, the “FGFR1 IC50/FGFR2 IC50” value is on record as “G (a selectivity ratio greater than 150 but less than or equal to 500)” and the “FGFR3 IC50/FGFR2 IC50” value is on record as “G (a selectivity ratio greater than 150 but less than or equal to 500)”.
`C=CC(=O)N1CCC2(CC=C(c3c(C(C)C)c4c(N)ncnc4n3C)CC2)CC1` [Example 15, 1-(9-(4-amino-5-isopropyl-7-methyl-7H-pyrrolo[2,3-d]pyrimidin-6-yl)-3-azaspiro[5.5]undec-8-en-3-yl)prop-2-en-1-one]: the negative-log IC50 (pIC50) in experiment [1] was < 7.00; in experiment [2], < 7.00; in experiment [3], 7.52 to 8.00. In experiment [3], the “FGFR3 IC50/FGFR2 IC50” value was “F (a selectivity ratio greater than 50 but less than or equal to 150)”.
For `[2H]C([2H])([2H])Oc1ccc(-c2c(C3=C(F)CC4(CC3)CCN(C(=O)C=C)CC4)n(C)c3ncnc(N)c23)cc1` [Example 38, 1-(9-(4-amino-5-(4-(methoxy-d3)phenyl)-7-methyl-7H-pyrrolo[2,3-d]pyrimidin-6-yl)-8-fluoro-3-azaspiro[5.5]undec-8-en-3-yl)prop-2-en-1-one], the values for the pIC50 in experiment [1], in experiment [2] and in experiment [3] were 7.00 to 7.52, 7.00 to 7.52 and ≥ 9.00, respectively. Besides, in experiment [3], the “FGFR1 IC50/FGFR2 IC50” value is “F (a selectivity ratio greater than 50 but less than or equal to 150)”. For the same compound, the “FGFR3 IC50/FGFR2 IC50” value in experiment [3] was “F (a selectivity ratio greater than 50 but less than or equal to 150)”.
As to `C=CC(=O)N1CCC2(CC=C(c3c(-c4ncco4)c4c(N)ncnc4n3C)CC2)CC1` [Example 53, 1-(9-(4-amino-7-methyl-5-(oxazol-2-yl)-7H-pyrrolo[2,3-d]pyrimidin-6-yl)-3-azaspiro[5.5]undec-8-en-3-yl)prop-2-en-1-one], the pIC50 in experiment [1], in experiment [2] and in experiment [3] was < 7.00 throughout.
Regarding `C=CC(=O)N1CCC2(CC=C(c3c(-c4ccnn4C)c4c(N)ncnc4n3C)CC2)CC1` [Example 13, 1-(9-(4-amino-7-methyl-5-(1-methyl-1H-pyrazol-5-yl)-7H-pyrrolo[2,3-d]pyrimidin-6-yl)-3-azaspiro[5.5]undec-8-en-3-yl)prop-2-en-1-one], the pIC50 in experiment [1], in experiment [2] and in experiment [3] was < 7.00 in each case.
On to `C=CC(=O)N1CCC2(CC=C(c3c(-c4cncc(F)c4)c4c(N)ncnc4n3C)CC2)CC1` [Example 27, 1-(9-(4-amino-5-(5-fluoropyridin-3-yl)-7-methyl-7H-pyrrolo[2,3-d]pyrimidin-6-yl)-3-azaspiro[5.5]undec-8-en-3-yl)prop-2-en-1-one], for which the pIC50 was < 7.00 in experiment [1], < 7.00 in experiment [2] and 8.00 to 9.00 in experiment [3]. For the same compound, the “FGFR1 IC50/FGFR2 IC50” value in experiment [3] is given as “F (a selectivity ratio greater than 50 but less than or equal to 150)”. For the same compound, the “FGFR3 IC50/FGFR2 IC50” value in experiment [3] is on record as “H (a selectivity ratio greater than 500 but less than or equal to 1000)”.
Take `C=CC(=O)N1CCC2(CC=C(c3c(-c4cccnn4)c4c(N)ncnc4n3C)CC2)CC1` [Example 61, 1-(9-(4-amino-7-methyl-5-(pyridazin-3-yl)-7H-pyrrolo[2,3-d]pyrimidin-6-yl)-3-azaspiro[5.5]undec-8-en-3-yl)prop-2-en-1-one]: the pIC50 in experiment [1] was < 7.00; in experiment [2], < 7.00; in experiment [3], 7.52 to 8.00. In addition, the “FGFR1 IC50/FGFR2 IC50” value in experiment [3] is given as “G (a selectivity ratio greater than 150 but less than or equal to 500)”. For the same compound, the “FGFR3 IC50/FGFR2 IC50” value in experiment [3] is listed as “G (a selectivity ratio greater than 150 but less than or equal to 500)”.
Regarding `C=CC(=O)N1CCC2(CC=C(c3c(-c4ccc(C#N)nc4)c4c(N)ncnc4n3C(F)F)CC2)CC1` [Example 37, 5-(6-(3-acryloyl-3-azaspiro[5.5]undec-8-en-9-yl)-4-amino-7-(difluoromethyl)-7H-pyrrolo[2,3-d]pyrimidin-5-yl)picolinonitrile], the pIC50 in experiment [1] is < 7.00. Moreover, the negative-log IC50 (pIC50) in experiment [2] was < 7.00. Besides, in experiment [3], the pIC50 was 7.52 to 8.00, the “FGFR1 IC50/FGFR2 IC50” value was “G (a selectivity ratio greater than 150 but less than or equal to 500)” and the “FGFR3 IC50/FGFR2 IC50” value is on record as “G (a selectivity ratio greater than 150 but less than or equal to 500)”.
Take `C=CC(=O)N1CCC2(CC=C(c3c(-c4ccc(F)cc4)c4c(N)ncnc4n3C)CO2)CC1` [Example 41, 1-(3-(4-amino-5-(4-fluorophenyl)-7-methyl-7H-pyrrolo[2,3-d]pyrimidin-6-yl)-1-oxa-9-azaspiro[5.5]undec-3-en-9-yl)prop-2-en-1-one]: the negative-log IC50 (pIC50) in experiment [1] is < 7.00. In addition, in experiment [2], the pIC50 was < 7.00. In addition, in experiment [3], the pIC50 was 8.00 to 9.00, the “FGFR1 IC50/FGFR2 IC50” value is listed as “H (a selectivity ratio greater than 500 but less than or equal to 1000)” and the “FGFR3 IC50/FGFR2 IC50” value is listed as “H (a selectivity ratio greater than 500 but less than or equal to 1000)”.
On to `C=CC(=O)N1CCC2(CC=C(c3c(-c4ccncn4)c4c(N)ncnc4n3C)CC2)CC1` [Example 60, 1-(9-(4-amino-7-methyl-5-(pyrimidin-4-yl)-7H-pyrrolo[2,3-d]pyrimidin-6-yl)-3-azaspiro[5.5]undec-8-en-3-yl)prop-2-en-1-one], for which the pIC50 was < 7.00 in experiment [1], < 7.00 in experiment [2] and 7.52 to 8.00 in experiment [3]. Besides, the “FGFR3 IC50/FGFR2 IC50” value in experiment [3] is listed as “F (a selectivity ratio greater than 50 but less than or equal to 150)”.
Take `C=CC(=O)N1CCC2(CC=C(c3c(-c4ncc(OC5COC5)cn4)c4c(N)ncnc4n3C)CC2)CC1` [Example 46, 1-(9-(4-amino-7-methyl-5-(5-(oxetan-3-yloxy)pyrimidin-2-yl)-7H-pyrrolo[2,3-d]pyrimidin-6-yl)-3-azaspiro[5.5]undec-8-en-3-yl)prop-2-en-1-one]: in experiment [1], the pIC50 is < 7.00. In experiment [2], the pIC50 is < 7.00. Further, in experiment [3], the pIC50 is 8.00 to 9.00, the “FGFR1 IC50/FGFR2 IC50” value was “H (a selectivity ratio greater than 500 but less than or equal to 1000)” and the “FGFR3 IC50/FGFR2 IC50” value was “J (a selectivity ratio greater than 2000)”.
